PubChem BioAssay AID463136 (University of Pittsburgh Molecular Library Screening Center, 2010)
Records with an inconclusive call do not appear. Calls of active or inactive are those of the source. No rule for the calls is given here.

Experiments:
[1] = blockers of dynein-driven microtubule transport – imaging, high-content imaging, dose response (AID 463136); conditions: HCS imaging, dynein-mediated cargo transport inhibition; inhibition at max concentration; at 50 µM; stronger effect = higher value;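 also: mouse mammary adenocarcinoma 3617.4 cells expressing GFP-tagged rat glucocorticoid receptor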; as to inhibition: reference of the scale not given here
[2] = test system: HCS imaging, dynein-mediated cargo transport inhibition; assay: as above

SMILES | inhibition [1] [%] | IC50 [2]
CCCCc1c(C)c(C#N)c2nc3ccccc3n2c1Cl | -60.6 | > 50 µM (inactive)
C=CCN1C(=O)NC(=O)/C(=C/C=C/c2ccccc2)C1=O | -33.3 | > 50 µM (inactive)
O=C(O)c1ccc(NC2=C(Cl)C(=O)c3ccccc3C2=O)cc1 | 71.1 | 15.2 µM
O=C(CCl)N(Cc1cccc([N+](=O)[O-])c1)c1cccc(Cl)c1 | 75 | 12.2 µM
CCOC(=O)c1c(NC(=S)N2CCCCC2)sc2c1CCN(C(=O)OCC)C2 | 30.3 | > 50 µM (inactive)
C[C@@H]1C[C@@H]2O[C@H]2/C=C\C=C\C(=O)Cc2c(Cl)c(O)cc(O)c2C(=O)O1 | 49.4 | 0.281 µM
O=c1oc2c3c4c(cc2c(C(F)(F)F)c1CCN1CCOCC1)CCCN4CCC3 | 99.3 | 36.4 µM
O=c1cc(C(F)(F)F)c2cc3c4c(c2o1)CCCN4CCC3 | 99.6 | 5.51 µM
CC1CCN(C(=O)c2ccc3c(Cl)c4c(nc3c2)CCCC4)CC1 | 76.6 | 21.4 µM
CCCn1nc(-c2ccccc2)c2nc3ccccc3nc21 | -0.033 | > 50 µM (inactive)
CCOC(=O)C(C(=O)OCC)C(C(=O)OCC)N1CCOCC1 (centres undefined) | 89.2 | 14 µM
N#CC(C#N)=C1C=C2C=C(N3CCCCC3)CCC2CC1 (centres undefined) | 99.5 | 35.8 µM
COc1ccccc1N1C(=O)CC(Sc2n[nH]c(-c3cccc(C)c3)n2)C1=O (centres undefined) | 5.74 | > 50 µM (inactive)
COc1ccc(C(CCN(Cc2ccc(OC)c(OC)c2)C(=O)CCl)c2ccccc2)cc1 (centres undefined) | 70.4 | 37 µM
COC(CNC(=O)c1ccc2c3c(onc13)-c1ccccc1C2=O)OC | 99.6 | 29.3 µM
O=C(NC1CCCC1)C(c1ccc(F)cc1)N(Cc1ccc(F)cc1)C(=O)CCl (centres undefined) | 73.1 | 38.5 µM
N#Cc1c(Cl)c(Cl)c2nnc(-c3ccc(Br)cc3)n2c1Cl | 40.1 | > 50 µM (inactive)
COC(=O)c1cc(=O)n(Cc2ccc(OC)c(OC)c2)c(=Nc2ccc(F)cc2)s1 | 74.3 | 24.6 µM
COc1cccc(C2CC3C(=O)C=CC2N3Cc2ccccc2)c1 (centres undefined) | 90 | 13.3 µM
CC(=O)N1/C(=C/c2ccc(N(C)C)cc2)C(=O)c2ccccc21 | 78.9 | 29.9 µM
COC(=O)c1cc(NC(=O)c2cccc(Cl)c2)c(=O)oc1/C=C/Nc1cc(C)cc(C)c1 | 76.3 | 2.54 µM

SMILES | inhibition [1] [%] | IC50 [2]
COc1cccc(N(C(=O)CCl)C(C(=O)NCCc2ccccc2)c2cccs2)c1 (centres undefined) | 85.4 | 27.1 µM
CN(C(=O)CCl)C1CCCc2ccccc21 (centres undefined) | 70.4 | 6.32 µM
COc1ccc(C(=O)/C=C/C(=O)N(CC(=O)NCCC(C)C)Cc2cccs2)c(O)c1 | 45.7 | > 50 µM (inactive)
Nc1c(C(=O)C2CC2)sc2nc(-c3ccccc3)cc(C(F)(F)F)c12 | 134 | 31.2 µM
Cn1cnc([N+](=O)[O-])c1S(=O)(=O)c1ccc(Cl)cc1 | 78.2 | 3.72 µM
Cc1ccc(-c2cn3nc(-c4ccccc4)c(-c4ccccc4)nc3n2)cc1 | 93.2 | 40.2 µM
CN1CCN(S(=O)(=O)c2ccc(Sc3nnnn3-c3ccccc3)c([N+](=O)[O-])c2)CC1 | 75.4 | 17.5 µM
CCOC(=O)COc1ccc(/C=C/[N+](=O)[O-])c(OCC(=O)OCC)c1 | 82.8 | 11.4 µM
CC(C)(C)C(=O)/C=c1\s/c(=C\c2ccc(-c3ccc([N+](=O)[O-])cc3)o2)c(=O)n1CC(=O)NC(N)=O | 98.8 | 0.825 µM
CCCCc1cc(O)c(CCCC)c(O)c1 | 76.8 | 2.31 µM
Cc1ccccc1NC(=O)C(Cl)=C(Cl)Cl | 77.1 | 13.4 µM
O=C1CCCCc2sc(Br)c([N+](=O)[O-])c2N1 | 66.9 | 7.06 µM
CCN1C/C(=C/c2cccc([N+](=O)[O-])c2)C(=O)/C(=C/c2cccc([N+](=O)[O-])c2)C1 | 84.7 | 22.6 µM
O=C1CN(C(=O)Cn2ncc(Cl)c(Cl)c2=O)c2ccccc2N1 | 76.5 | 9.46 µM
COc1ccc2c(c1)c1ccc3c(c1n2C)C(=O)C=CC3=O | 93.1 | 14.5 µM
CSc1nnc(C)c(/C=C/Nc2ccc(C)cc2)n1 | 109 | 31 µM
CC(=O)c1sc2nc(-c3cccs3)cc(C(F)(F)F)c2c1N | 86 | 21.6 µM
COC(=O)c1cc([N+](=O)[O-])c(-n2cncn2)c([N+](=O)[O-])c1 | 12.4 | > 50 µM (inactive)
COC(CN(C(=O)CCl)C(C(=O)NC1CCCCC1)c1ccc(Cl)cc1)OC (centres undefined) | 82.6 | 22.6 µM
CCN(CC)c1ccc(/C=C/C(=O)c2ccc(Br)cc2)cc1 | 7.65 | > 50 µM (inactive)
Cc1ccccc1N1C(=O)CC(Sc2nnc(-c3ccccc3)o2)C1=O (centres undefined) | 16.4 | > 50 µM (inactive)

SMILES | inhibition [1] [%] | IC50 [2]
CS(=O)(=O)c1cc([N+](=O)[O-])c(Sc2nc3ccccc3[nH]2)c([N+](=O)[O-])c1 | 22.9 | > 50 µM (inactive)
Cc1ccc(NC(=O)CCl)cc1S(=O)(=O)N1CCCCCC1 | 88.6 | 10.6 µM
CCOC(=O)c1c(-n2c(C)cc(C=C3C(=O)NC(=S)NC3=O)c2C)sc2c1CCCC2 | 78.1 | 5.75 µM
COc1cccc(/C(O)=C/c2nc3ccc(C(=O)NCCc4ccc(Cl)cc4)cc3[nH]c2=O)c1 | 32.4 | > 50 µM (inactive)
Cc1ccc(C)c2nc3sc(C(=O)N4CCCc5ccccc54)c(N)c3cc12 | 34.8 | > 50 µM (inactive)
CCOC(=O)C(=Cc1ccc(OCc2ccc([N+](=O)[O-])cc2)c(OC)c1)C(=O)OCC | 2.92 | > 50 µM (inactive)
Cc1cccc(N(Cc2ccccc2)C(=O)CCl)c1 | 63.4 | 11.9 µM
CCN1/C(=C/c2ccc3ccc(C)cc3[n+]2CC)Sc2ccccc21 | 98.5 | 2.13 µM
O=[N+]([O-])c1ccc(-c2ccc(/C=N/Nc3nc(N4CCCCC4)nc(N4CCCCC4)n3)o2)cc1 | 22.5 | > 50 µM (inactive)
Nc1c(C(=O)N/N=C/c2ccc(F)cc2)oc2nc(-c3ccccc3)cc(-c3ccco3)c12 | 40.9 | > 50 µM (inactive)
CCOc1cc(C=C(C(=O)OC)C(=O)OC)ccc1OCc1ccc([N+](=O)[O-])cc1 | 37.2 | > 50 µM (inactive)
CCc1ccccc1NC(=O)CN(C)C(=O)Cn1ncc(Cl)c(Cl)c1=O | 81.8 | 7.32 µM
O=C(Cc1ccccc1)Nc1cccc(N2C(=O)C=CC2=O)c1 | 4.22 | > 50 µM (inactive)
C=CCSc1nc2ccccc2n1C(=O)/C=C/c1cc(OC)c(OC)c(OC)c1 | 25.5 | > 50 µM (inactive)
Nc1c(C(=O)c2cccs2)sc2nsc(SCCN3CCCCC3)c12 | 11.4 | > 50 µM (inactive)
Cc1cc(C(=O)Cn2ncc(Cl)c(Cl)c2=O)c(C)n1CC(F)(F)F | 78.6 | 7.79 µM
COC(=O)c1cc(=O)n(CCc2ccccc2F)c(=Nc2ccc(F)c(Cl)c2)s1 | 11.9 | > 50 µM (inactive)
Cc1ccc(NC(=O)c2cc(N3C(=O)C=CC3=O)ccc2N2CCOCC2)cc1 | -6.6 | > 50 µM (inactive)
CC(C)(C)C(=O)Cn1ncc(Br)c(Br)c1=O | 59.6 | 7.91 µM
COc1ccc(Oc2cc(NC(=O)c3nn(C)cc3[N+](=O)[O-])cc([N+](=O)[O-])c2)cc1 | 69.9 | 43 µM
N#C/C(=C/c1ccc(N2CCCCCC2)o1)c1ccc(F)cc1 | 33.8 | > 50 µM (inactive)

SMILES | inhibition [1] [%] | IC50 [2]
Cc1ccc(C2=NOC(=O)/C2=C\C=C\c2ccccc2)cc1 | 71 | 36.6 µM
O=[N+]([O-])c1ccc(NCc2ccccc2)c2nonc12 | 99.5 | 26.9 µM
CN(Cc1ccc(Cl)s1)C(=O)CCl | 75.8 | 8.74 µM
Cc1ccc(NC(=O)C(=Cc2ccc(C(=O)O)cc2)C(=O)Nc2ccc(C)cc2C)c(C)c1 | 78 | 11.1 µM
Nc1cccc2c1C(=O)N(C(=O)/C=C/c1cccc(F)c1)C2=O | 14.3 | > 50 µM (inactive)
Cc1ccc(C(=O)OCn2ncc(Cl)c(Cl)c2=O)cc1 | 76.2 | 18.9 µM
CCOc1ccccc1N1C(=O)CC(Sc2n[nH]c(-c3ccccc3)n2)C1=O (centres undefined) | 13.5 | > 50 µM (inactive)
CC(=O)Nc1sc(/C(C#N)=C\c2cccc(Cl)c2)nc1-c1ccc(C)cc1 | 109 | 8.22 µM
O=c1c2ccccc2sn1-c1ccccc1 | 90.4 | 12.7 µM
O=C(CCl)N(Cc1ccccc1)c1ccccc1 | 69.4 | 10 µM
CCOC(=O)c1c(NC(=O)/C=C/C(=O)O)sc(C)c1-c1ccc(Cl)cc1 | 93.3 | 9.7 µM
Cc1ccccc1-n1sc2cc(F)ccc2c1=O | 96.2 | 13.6 µM
COc1ccc(-c2cc(C(F)(F)F)nc(S(=O)(=O)CCCC(=O)Nc3cc(C)on3)n2)cc1OC | 67.2 | 42.9 µM
Nc1c(C(=O)c2ccc(Cl)cc2)sc2nsc(SCCN3CCOCC3)c12 | 7.23 | > 50 µM (inactive)
O=C(c1ccccc1)c1ccccc1N1C(=O)C=CC1=O | 7.43 | > 50 µM (inactive)
O=C(Nc1ccc(F)cc1)c1nn(-c2ccccc2)c(=O)cc1Cl | 76.4 | 35.7 µM
O=c1c(Cl)c(Cl)cnn1Cc1ccc(F)cc1 | 80.4 | 10.3 µM
Nc1c(C(=O)C2CC2)sc2nc(-c3cccs3)cc(C(F)(F)F)c12 | 66.4 | 38.7 µM
O=C(c1nnsc1S(=O)(=O)c1ccc(Cl)cc1)N1CCOCC1 | 60.5 | 5.38 µM
